Results as given in US20200190135A1, “LASSO STRUCTURES AND THEIR SYNTHESIS” (ChromaCon AG, priority 2016, published 2020).
Numbered stars: 1 amine (or outer) side, 2 acyl side, 3 side chain; on linkers, the order of the positions; unused ones are H or OH. Square brackets hold non-standard residues; d marks the D form. Peptide text beside a SMILES is read from it. * marks the point of attachment. ξ: configuration not given here. X1 = O=C(NCCOCCN(CC(=O)[*:2])[*:1])c1ccc(F)cc1; X2 = c1cc2c(cc1CCN*)OCCOCCOCCOCCOCCOCCO2; Thr(3ξ) = CC(O)[C@H](N)C(=O)O; GABA = NCCCC(=O)O; Cam = NC(=O)C*

Key:
Type in all cases: in vitro ADME
[1] = test system: trypsin; assay: Proteolytic stability, incubation with trypsin; conditions: incubation for 24 h with trypsin (FIG. 13)
Experimental: (§1) Proteolytic stability of lasso compounds L1, L2, and L3 in comparison to their branched macrocyclic compounds B1, B2, and B3 and the cyclic peptide analogue C1 (see FIG. 11) was tested in separate experiments by incubation for 24 h with chymotrypsin (FIG. 12), trypsin (FIG. 13) and proteinase K (FIG. 14).

[2] = biological target: proteinase K (Parengyodontium album, UniProt P06873); assay: Proteolytic stability, incubation with proteinase K; conditions: incubation for 24 h with proteinase K (FIG. 14)
proteinase K, sequence (P06873 106-384): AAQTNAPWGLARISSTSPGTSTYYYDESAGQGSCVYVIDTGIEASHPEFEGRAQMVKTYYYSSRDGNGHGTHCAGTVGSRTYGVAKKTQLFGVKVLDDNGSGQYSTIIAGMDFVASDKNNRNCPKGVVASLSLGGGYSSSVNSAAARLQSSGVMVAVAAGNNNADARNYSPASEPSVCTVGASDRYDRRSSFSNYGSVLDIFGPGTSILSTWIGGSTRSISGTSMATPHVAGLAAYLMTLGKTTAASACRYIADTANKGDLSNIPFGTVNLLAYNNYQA
Experimental: as §1

[3] = Serum stability, incubation with human serum; conditions: incubation for 24 h with human serum (FIG. 16)
Experimental: Serum stability of compounds L1, L2, and L3 in comparison to their branched macrocyclic compounds B1, B2, and B3, the cyclic peptide C1, and the linear C- and N-terminally unmasked derivative R1 (see FIG. 15) was tested by incubation for 24 h with human serum (FIG. 16).

For `CC(C)C[C@@H]1NC(=O)[C@H](C(C)O)NC(=O)[C@H](CCCCN)NC(=O)[C@@H](Cc2c[nH]c3ccccc23)NC(=O)[C@H](Cc2ccccc2)NC(=O)[C@H](CSCC(N)=O)NC(=O)CNC(=O)[C@H](Cc2ccccc2)NC(=O)CCCNC1=O` (stereo partly shown) [C1] (cyclo(C(Cam)F[dW]K[Thr(3ξ)]L[GABA]FG)), the “stability versus trypsin degradation” value [1] was “similarly stable as L1-L3” and the “stability versus proteinase K degradation” value [2] was “similarly stable as L1-L3”.

`CC(C)C[C@H](NC(=O)[C@@H](NC(=O)[C@H](CCCCN)NC(=O)[C@@H](Cc1c[nH]c2ccccc12)NC(=O)[C@H](Cc1ccccc1)NC(=O)[C@H](CSCC(N)=O)NC(=O)CNC(=O)[C@H](Cc1ccccc1)NC(=O)CNCCOCCNC(=O)c1ccc(F)cc1)[C@@H](C)O)C(=O)NCCCC(=O)NCCc1ccc2c(c1)OCCOCCOCCOCCOCCOCCO2` [L1] (H-[X1]FGC(Cam)F[dW]KTL[GABA]-X2) gave a remaining at 24 h ([3]; read-out: remaining compound at the final time point) of roughly 70%.

With `CC(C)C[C@H](NC(=O)[C@@H](NC(=O)[C@H](CCCCN)NC(=O)[C@@H](Cc1c[nH]c2ccccc12)NC(=O)[C@H](Cc1ccccc1)NC(=O)[C@H](CSCC(N)=O)NC(=O)CNC(=O)[C@@H](N)Cc1ccccc1)[C@@H](C)O)C(=O)O` [R1] (H-FGC(Cam)F[dW]KTL-OH) the “degradation in human serum (in words)” value [3] was “degraded rapidly and completely”.
